According to patent publication US20140050779A1, “[…]-2 INHIBITORS AND USES THEREOF” (SINGAPORE HEALTH SERVICES PTE. LTD., priority 2011, published 2014):

Assays:
TG-5 [1] = assay: Western blot of TG proteins in human scleral fibroblasts after muscarinic agents; type: cell-based; conditions: 0.01-10 μM for 5 days
TG-3 [2] = assay: Western blot of TG proteins in mouse scleral fibroblasts after muscarinic agents; type: cell-based; conditions: 0.01-10 μM for 5 days
TG-1 [3] = assay: as above; type: cell-based; conditions: 0.01-10 μM for 5 days
TG-5 [4] = assay: as above; type: cell-based; conditions: 0.01-10 μM for 5 days
TG-3 [5] = assay: Western blot of TG proteins in human scleral fibroblasts after muscarinic agents; type: cell-based; conditions: 0.01-10 μM for 5 days
TG-1 [6] = assay: as above; type: cell-based; conditions: 0.01-10 μM for 5 days
hM5 = target: T1, hM5 (Homo sapiens, UniProt P08912); assay: himbacine binding to cloned muscarinic receptor subtypes; conditions: cloned receptor subtype; data not shown
T1 sequence (P08912 1-532): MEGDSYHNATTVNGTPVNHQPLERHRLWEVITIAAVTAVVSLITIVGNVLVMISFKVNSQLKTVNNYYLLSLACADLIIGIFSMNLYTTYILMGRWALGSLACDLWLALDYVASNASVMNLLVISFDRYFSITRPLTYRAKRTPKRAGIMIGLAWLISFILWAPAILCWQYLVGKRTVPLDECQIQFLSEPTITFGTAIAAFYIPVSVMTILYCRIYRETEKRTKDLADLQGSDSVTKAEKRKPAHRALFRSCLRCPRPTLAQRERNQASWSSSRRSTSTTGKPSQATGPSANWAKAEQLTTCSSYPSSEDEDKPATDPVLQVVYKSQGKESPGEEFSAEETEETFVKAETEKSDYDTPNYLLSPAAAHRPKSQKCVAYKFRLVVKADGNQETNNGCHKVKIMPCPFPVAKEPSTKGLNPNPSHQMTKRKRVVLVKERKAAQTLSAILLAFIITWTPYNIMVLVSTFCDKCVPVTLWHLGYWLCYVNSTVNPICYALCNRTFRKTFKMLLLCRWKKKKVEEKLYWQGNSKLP

hM2 = target: T2, hM2 (Homo sapiens, UniProt P08172); assay: biochemical
T2 sequence (P08172 1-466): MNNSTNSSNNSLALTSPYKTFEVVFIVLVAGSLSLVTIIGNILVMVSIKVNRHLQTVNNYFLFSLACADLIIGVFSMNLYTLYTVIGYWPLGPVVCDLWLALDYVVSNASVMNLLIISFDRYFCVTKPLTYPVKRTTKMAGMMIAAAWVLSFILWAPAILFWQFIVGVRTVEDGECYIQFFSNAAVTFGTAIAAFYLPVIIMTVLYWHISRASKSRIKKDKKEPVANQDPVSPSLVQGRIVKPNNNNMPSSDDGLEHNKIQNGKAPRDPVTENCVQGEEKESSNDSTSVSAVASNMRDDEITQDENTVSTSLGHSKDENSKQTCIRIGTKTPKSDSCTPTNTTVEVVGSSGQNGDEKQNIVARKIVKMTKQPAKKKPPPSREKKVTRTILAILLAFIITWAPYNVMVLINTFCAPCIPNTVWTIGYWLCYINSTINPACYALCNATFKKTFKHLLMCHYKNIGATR
Source text: In some embodiments, the TG-2 inhibitors described herein can target the respective TG-2 protein and/or the expression of TGM-2. In other embodiments, the TG-2 inhibitors can further target at least one muscarinic receptor, for example M2 or M3 or inhibit the expression of at least one muscarinic receptor for example, M2 or M3.

SMILES | TG-5 protein level (TG-5 [1]) | TG-3 protein level (TG-3 [2]) | TG-1 protein level (TG-1 [3]) | TG-5 protein level (TG-5 [4]) | TG-3 protein level (TG-3 [5]) | TG-1 protein level (TG-1 [6]) | Kd (hM5) [nM] | Kd (hM2) [nM]
CN1[C@@H]2CC[C@H]1C[C@@H](OC(=O)C(CO)c1ccccc1)C2 (some centres unmarked) [atropine] | reduced | increased | reduced | reduced | increased | reduced | – | –
C[C@@H]1OC(=O)[C@H]2C[C@H]3CCCC[C@@H]3[C@@H](/C=C/[C@H]3CCC[C@H](C)N3C)[C@@H]12 [himbacine] | – | – | – | – | – | – | 296 | 4
